The test addresses T1, GPR40 of human origin (Homo sapiens, UniProt O14842).
T1 construct: expressed in transfected cells
In words: Agonist action on GPR40 of human origin (intracellular Ca2+ change). Format: cell-based. To be noted: CHO cell strain stably expressing GPR40 of human origin; change in Ca2+ concentration, fluorescent calcium indicator. Put shortly: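 CHO cells stably expressing human GPR40, cultured overnight, then loaded 1 h with Calcium 4 dye plus probenecid in HEPES-buffered HBSS. Compound added in 20 mM HEPES-HBSS; intracellular Ca2+ change read by fluorescence, EC50 from dose-response of fluorescence change.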
T1 sequence (O14842 whole entry): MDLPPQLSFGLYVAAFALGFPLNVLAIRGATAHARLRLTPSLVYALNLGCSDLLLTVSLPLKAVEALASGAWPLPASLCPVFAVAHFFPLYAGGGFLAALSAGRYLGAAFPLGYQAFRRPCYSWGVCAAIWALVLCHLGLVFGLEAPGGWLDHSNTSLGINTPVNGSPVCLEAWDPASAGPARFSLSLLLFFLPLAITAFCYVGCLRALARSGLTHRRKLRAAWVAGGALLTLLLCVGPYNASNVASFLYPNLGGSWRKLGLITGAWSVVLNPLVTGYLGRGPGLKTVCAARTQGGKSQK
As for `CN1CC2(CCN(Cc3ccc(COc4ccc(-c5cc(O)n[s+]5[O-])cc4)cc3)CC2)c2ccccc21` (stereo not shown) [Example 124, 3-hydroxy-5-(4-((4-((1-methylspiro[indolin-3,4′-piperidin]-1′-yl)methyl)benzyl)oxy)phenyl)isothiazole 1-oxide], the EC50 is 300 to 3000 nM.
Next, `N#Cc1ccc(Oc2cccc(COc3ccc(-c4cc(O)n[s+]4[O-])cc3)c2)cc1` (stereo not shown) [Example 125, 4-(3-((4-(3-hydroxy-1-oxidoisothiazol-5-yl)phenoxy)methyl)phenoxy)benzonitrile]: below 300 nM; `Cc1ncccc1Oc1cccc2c1CC[C@H]2Oc1ccc(-c2cc(O)n[s+]2[O-])cc1` (stereo partly drawn) [Example 126, 3-hydroxy-5-(4-(((R)-4-((2-methylpyridin-3-yl)oxy)-2,3-dihydro-1H-inden-1-yl)oxy)phenyl)isothiazole 1-oxide]: below 300 nM.
Next, `COc1cncc(Oc2cccc3c2CC[C@H]3Oc2ccc(-c3cc(O)n[s+]3[O-])cc2)c1` (stereo partly drawn) [Example 127, 3-hydroxy-5-(4-(((R)-4-((3-methoxypyridin-5-yl)oxy)-2,3-dihydro-1H-inden-1-yl)oxy)phenyl)isothiazole 1-oxide]: below 300 nM; `NC(=O)c1cccc(Oc2cccc3c2CC[C@H]3Oc2ccc(-c3cc(O)n[s+]3[O-])cc2)c1` (stereo partly drawn) [Example 128, 3-(((1R)-1-(4-(3-hydroxy-1-oxidoisothiazol-5-yl)phenoxy)-2,3-dihydro-1H-inden-4-yl)oxy)benzamide]: below 300 nM.
With `NC(=O)c1ccc(Oc2cccc3c2CC[C@H]3Oc2ccc(-c3cc(O)n[s+]3[O-])cc2)cc1` (stereo partly drawn) [Example 129, 4-(((1R)-1-(4-(3-hydroxy-1-oxidoisothiazol-5-yl)phenoxy)-2,3-dihydro-1H-inden-4-yl)oxy)benzamide] the figure was below 300 nM; with `Cc1cccc(Oc2cccc3c2CC[C@H]3Oc2ccc(-c3cc(O)n[s+]3[O-])cc2)n1` (stereo partly drawn) [Example 130, 3-hydroxy-5-(4-(((R)-4-((6-methylpyridin-2-yl)oxy)-2,3-dihydro-1H-inden-1-yl)oxy)phenyl)isothiazole 1-oxide], below 300 nM.
Turning to `N#Cc1ccc(Oc2cccc3c2CC[C@H]3Oc2ccc(-c3cc(O)n[s+]3[O-])cc2)cc1N1CCOC1=O` (stereo partly drawn) [Example 131, 4-(((R)-1-(4-(3-hydroxy-1-oxidoisothiazol-5-yl)phenoxy)-2,3-dihydro-1H-inden-4-yl)oxy)-2-(2-oxooxazolidin-3-yl)benzonitrile], the EC50 is below 300 nM.
For `COc1cccnc1Oc1cccc2c1CC[C@H]2Oc1ccc(-c2cc(O)n[s+]2[O-])cc1` (stereo partly drawn) [Example 132, 3-hydroxy-5-(4-(((R)-4-((3-methoxypyridin-2-yl)oxy)-2,3-dihydro-1H-inden-1-yl)oxy)phenyl)isothiazole 1-oxide], the EC50 lay within 300 to 3000 nM.
Next, `Cc1ccnc(Oc2cccc3c2CC[C@H]3Oc2ccc(-c3cc(O)n[s+]3[O-])cc2)c1` (stereo partly drawn) [Example 133, 3-hydroxy-5-(4-(((R)-4-((4-methylpyridin-2-yl)oxy)-2,3-dihydro-1H-inden-1-yl)oxy)phenyl)isothiazole 1-oxide]: below 300 nM.
With `Cc1ccc(Oc2cccc3c2CC[C@H]3Oc2ccc(-c3cc(O)n[s+]3[O-])cc2)nc1` (stereo partly drawn) [Example 134, 3-hydroxy-5-(4-(((R)-4-((5-methylpyridin-2-yl)oxy)-2,3-dihydro-1H-inden-1-yl)oxy)phenyl)isothiazole 1-oxide] the figure was below 300 nM; with `Cc1cc(Oc2cccc3c2CC[C@H]3Oc2ccc(-c3cc(O)n[s+]3[O-])cc2)ccn1` (stereo partly drawn) [Example 135, 3-hydroxy-5-(4-(((R)-4-((2-methylpyridin-4-yl)oxy)-2,3-dihydro-1H-inden-1-yl)oxy)phenyl)isothiazole 1-oxide], below 300 nM; with `CNC(=O)c1ccc(Oc2cccc3c2CC[C@H]3Oc2ccc(-c3cc(O)n[s+]3[O-])cc2)cc1` (stereo partly drawn) [Example 136, 4-(((1R)-1-(4-(3-hydroxy-1-oxidoisothiazol-5-yl)phenoxy)-2,3-dihydro-1H-inden-4-yl)oxy)-N-methylbenzamide], below 300 nM.
As to `CN(C)C(=O)c1ccc(Oc2cccc3c2CC[C@H]3Oc2ccc(-c3cc(O)n[s+]3[O-])cc2)cc1` (stereo partly drawn) [Example 137, 4-(((R)-1-(4-(3-hydroxy-1-oxidoisothiazol-5-yl)phenoxy)-2,3-dihydro-1H-inden-4-yl)oxy)-N,N-dimethylbenzamide], the EC50 is below 300 nM.
With `N#Cc1ccc(Oc2cccc3c2OCC3Oc2ccc(-c3cc(O)n[s+]3[O-])cc2)cc1` (stereo not shown) [Example 138, 4-((3-(4-(3-hydroxy-1-oxidoisothiazol-5-yl)phenoxy)-2,3-dihydrobenzofuran-7-yl)oxy)benzonitrile] the figure was below 300 nM; with `COc1ccc(Oc2cccc3c2OCC3Oc2ccc(-c3cc(O)n[s+]3[O-])cc2)cn1` (stereo not shown) [Example 140, 3-hydroxy-5-(4-((7-((6-methoxypyridin-3-yl)oxy)-2,3-dihydrobenzofuran-3-yl)oxy)phenyl)isothiazole 1-oxide], below 300 nM.
Regarding `Cc1nc(OCCC(C)(C)O)ccc1Oc1cccc2c1OCC2Oc1ccc(-c2cc(O)n[s+]2[O-])cc1` (stereo not shown) [Example 141, 3-hydroxy-5-(4-((7-((6-(3-hydroxy-3-methylbutoxy)-2-methylpyridin-3-yl)oxy)-2,3-dihydrobenzofuran-3-yl)oxy)phenyl)isothiazole 1-oxide], the EC50 is below 300 nM.
With `COCCN(C)C(=O)c1ccc(Oc2cccc3c2CC[C@H]3Oc2ccc(-c3cc(O)n[s+]3[O-])cc2)cc1` (stereo partly drawn) [Example 146, 4-(((R)-1-(4-(3-hydroxy-1-oxidoisothiazol-5-yl)phenoxy)-2,3-dihydro-1H-inden-4-yl)oxy)-N-(2-methoxyethyl)-N-methylbenzamide] the figure was below 300 nM; with `O=C(c1ccc(Oc2cccc3c2CC[C@H]3Oc2ccc(-c3cc(O)n[s+]3[O-])cc2)cc1)N1CCCC1` (stereo partly drawn) [Example 147, (4-(((R)-1-(4-(3-hydroxy-1-oxidoisothiazol-5-yl)phenoxy)-2,3-dihydro-1H-inden-4-yl)oxy)phenyl)(pyrrolidine-1-yl)methanone], below 300 nM; with `COc1cccc(Oc2cccc3c2CC[C@H]3Oc2ccc(-c3cc(O)n[s+]3[O-])cc2)n1` (stereo partly drawn) [Example 149, 3-hydroxy-5-(4-(((R)-4-((6-methoxypyridin-2-yl)oxy)-2,3-dihydro-1H-inden-1-yl)oxy)phenyl)isothiazole 1-oxide], below 300 nM.
As to `Cc1cccc(Oc2cccc3c2OCC3Oc2ccc(-c3cc(O)n[s+]3[O-])cc2)c1` (stereo not shown) [Example 155, 3-hydroxy-5-(4-((7-(m-tolyloxy)-2,3-dihydrobenzofuran-3-yl)oxy)phenyl)isothiazole 1-oxide], the EC50 is below 300 nM.
With `N#Cc1ccc(-c2cccc3c2CC[C@H]3Oc2ccc(-c3cc(O)n[s+]3[O-])cc2)cc1` (stereo partly drawn) [Example 156, 4-((1R)-1-(4-(3-hydroxy-1-oxidoisothiazol-5-yl)phenoxy)-2,3-dihydro-1H-inden-4-yl)benzonitrile] the figure was below 300 nM.
For the compound `N#Cc1ccc(-c2cccc3c2CC[C@H]3Oc2ccc(-c3cc(O)n[s+]3[O-])cc2)cn1` (stereo partly drawn) [Example 157, 5-((1R)-1-(4-(3-hydroxy-1-oxidoisothiazol-5-yl)phenoxy)-2,3-dihydro-1H-inden-4-yl)picolinonitrile], the EC50 fell in the range of 300 to 3000 nM.
Take `[O-][s+]1nc(O)cc1-c1ccc(O[C@@H]2CCc3c2cccc3N2CCCc3ccccc32)cc1` (stereo partly drawn) [Example 158, 5-(4-(((R)-4-(3,4-dihydroquinoline-1(2H)-yl)-2,3-dihydro-1H-inden-1-yl)oxy)phenyl)-3-hydroxyisothiazole 1-oxide]: the EC50 is below 300 nM.
With `[O-][s+]1nc(O)cc1-c1ccc(OCc2ccc(Oc3ccccc3)cc2)cc1` (stereo not shown) [Example 159, 3-hydroxy-5-(4-((4-phenoxybenzyl)oxy)phenyl)isothiazole 1-oxide] the figure was below 300 nM.
With `[O-][s+]1nc(O)cc1-c1ccc(OCCc2ccccc2Oc2ccccc2)cc1` (stereo not shown) [Example 161, 3-hydroxy-5-(4-(2-phenoxyphenethoxy)phenyl)isothiazole 1-oxide] the figure was below 300 nM; with `[O-][s+]1nc(O)cc1-c1ccc(OCCc2ccc(Oc3ccccc3)cc2)cc1` (stereo not shown) [Example 162, 3-hydroxy-5-(4-(4-phenoxyphenethoxy)phenyl)isothiazole 1-oxide], below 300 nM.
Turning to `[O-][s+]1nc(O)cc1-c1cccc(OCCc2cccc(Oc3ccccc3)c2)c1` (stereo not shown) [Example 163, 3-hydroxy-5-(3-(3-phenoxyphenethoxy)phenyl)isothiazole 1-oxide], the EC50 fell in the range of 300 to 3000 nM.

For the origin of these results see patent publication US8629102B2, “3-hydroxyisothiazole 1-oxide derivatives” (Mochida Pharmaceutical Co., Ltd., priority 2011, dated 2014).
